Like-named read-outs stand apart in the source and are kept apart here.
Assays:
Format in all cases: cell-based
Botrytis cinerea = conditions: 25° C., 1 day or 2 days
Fusarium oxysporum = tested on: Fusarium oxysporum
Pyricularia oryzae = conditions: 25° C., 1 day or 2 days
[1] = tested on: Colletotrichum destructivum; conditions: 25° C., 1 day or 2 days
[2] = tested on: Colletotrichum orbiculare; conditions: 25° C., 1 day or 2 days

YYGFP (listed as Solanum lycopersicum) [TsORF18-2-5aa-1]
0: Plate antimicrobial activity test Botrytis cinerea (level) (Botrytis cinerea; peptide 1 μM) | Plate antimicrobial activity test Botrytis cinerea (level) (Botrytis cinerea; peptide 10 μM) | Plate antimicrobial activity test Botrytis cinerea (level) (Botrytis cinerea; peptide 100 μM) | Plate antimicrobial activity test Fusarium oxysporum (level) (Fusarium oxysporum) | Plate antimicrobial activity test Pyricularia oryzae (level) (Pyricularia oryzae; peptide 1 μM) | Plate antimicrobial activity test Pyricularia oryzae (level) (Pyricularia oryzae; peptide 10 μM) | Plate antimicrobial activity test Pyricularia oryzae (level) (Pyricularia oryzae; peptide 100 μM) | Plate antimicrobial activity test Colletotrichum destructivum (level) ([1]; peptide 1 μM) | Plate antimicrobial activity test Colletotrichum destructivum (level) ([1]; peptide 10 μM) | Plate antimicrobial activity test Colletotrichum destructivum (level) ([1]; peptide 100 μM) | Plate antimicrobial activity test Collectotrichum orbiculare (level) ([2]; peptide 1 μM) | Plate antimicrobial activity test Collectotrichum orbiculare (level) ([2]; peptide 10 μM) | Plate antimicrobial activity test Collectotrichum orbiculare (level) ([2]; peptide 100 μM)

TRKFW (listed as Solanum lycopersicum) [TsORF18-2-5aa-11]
0: Plate antimicrobial activity test Botrytis cinerea (level) (Botrytis cinerea; peptide 1 μM) | Plate antimicrobial activity test Botrytis cinerea (level) (Botrytis cinerea; peptide 10 μM) | Plate antimicrobial activity test Botrytis cinerea (level) (Botrytis cinerea; peptide 100 μM) | Plate antimicrobial activity test Fusarium oxysporum (level) (Fusarium oxysporum) | Plate antimicrobial activity test Pyricularia oryzae (level) (Pyricularia oryzae; peptide 1 μM) | Plate antimicrobial activity test Pyricularia oryzae (level) (Pyricularia oryzae; peptide 10 μM) | Plate antimicrobial activity test Pyricularia oryzae (level) (Pyricularia oryzae; peptide 100 μM) | Plate antimicrobial activity test Colletotrichum destructivum (level) ([1]; peptide 1 μM) | Plate antimicrobial activity test Colletotrichum destructivum (level) ([1]; peptide 10 μM) | Plate antimicrobial activity test Colletotrichum destructivum (level) ([1]; peptide 100 μM) | Plate antimicrobial activity test Collectotrichum orbiculare (level) ([2]; peptide 1 μM) | Plate antimicrobial activity test Collectotrichum orbiculare (level) ([2]; peptide 10 μM) | Plate antimicrobial activity test Collectotrichum orbiculare (level) ([2]; peptide 100 μM)

ILLSLEIFERKFSRSVWYYGFP [TsORF18-1]
0: Plate antimicrobial activity test Botrytis cinerea (level) (Botrytis cinerea; peptide 1 μM) | Plate antimicrobial activity test Botrytis cinerea (level) (Botrytis cinerea; peptide 10 μM) | Plate antimicrobial activity test Botrytis cinerea (level) (Botrytis cinerea; peptide 100 μM) | Plate antimicrobial activity test Fusarium oxysporum (level) (Fusarium oxysporum) | Plate antimicrobial activity test Pyricularia oryzae (level) (Pyricularia oryzae; peptide 1 μM) | Plate antimicrobial activity test Pyricularia oryzae (level) (Pyricularia oryzae; peptide 10 μM) | Plate antimicrobial activity test Pyricularia oryzae (level) (Pyricularia oryzae; peptide 100 μM) | Plate antimicrobial activity test Colletotrichum destructivum (level) ([1]; peptide 1 μM) | Plate antimicrobial activity test Colletotrichum destructivum (level) ([1]; peptide 10 μM) | Plate antimicrobial activity test Colletotrichum destructivum (level) ([1]; peptide 100 μM) | Plate antimicrobial activity test Collectotrichum orbiculare (level) ([2]; peptide 1 μM) | Plate antimicrobial activity test Collectotrichum orbiculare (level) ([2]; peptide 10 μM) | Plate antimicrobial activity test Collectotrichum orbiculare (level) ([2]; peptide 100 μM)

WKGKT (listed as Solanum lycopersicum) [TsORF18-2-5aa-18]
0: Plate antimicrobial activity test Botrytis cinerea (level) (Botrytis cinerea; peptide 1 μM) | Plate antimicrobial activity test Botrytis cinerea (level) (Botrytis cinerea; peptide 10 μM) | Plate antimicrobial activity test Botrytis cinerea (level) (Botrytis cinerea; peptide 100 μM) | Plate antimicrobial activity test Fusarium oxysporum (level) (Fusarium oxysporum) | Plate antimicrobial activity test Pyricularia oryzae (level) (Pyricularia oryzae; peptide 1 μM) | Plate antimicrobial activity test Pyricularia oryzae (level) (Pyricularia oryzae; peptide 10 μM) | Plate antimicrobial activity test Pyricularia oryzae (level) (Pyricularia oryzae; peptide 100 μM) | Plate antimicrobial activity test Colletotrichum destructivum (level) ([1]; peptide 1 μM) | Plate antimicrobial activity test Colletotrichum destructivum (level) ([1]; peptide 10 μM) | Plate antimicrobial activity test Colletotrichum destructivum (level) ([1]; peptide 100 μM) | Plate antimicrobial activity test Collectotrichum orbiculare (level) ([2]; peptide 1 μM) | Plate antimicrobial activity test Collectotrichum orbiculare (level) ([2]; peptide 10 μM) | Plate antimicrobial activity test Collectotrichum orbiculare (level) ([2]; peptide 100 μM)

GFPAF (listed as Solanum lycopersicum) [TsORF18-2-5aa-3]
0: Plate antimicrobial activity test Botrytis cinerea (level) (Botrytis cinerea; peptide 1 μM) | Plate antimicrobial activity test Botrytis cinerea (level) (Botrytis cinerea; peptide 10 μM) | Plate antimicrobial activity test Botrytis cinerea (level) (Botrytis cinerea; peptide 100 μM) | Plate antimicrobial activity test Fusarium oxysporum (level) (Fusarium oxysporum) | Plate antimicrobial activity test Pyricularia oryzae (level) (Pyricularia oryzae; peptide 1 μM) | Plate antimicrobial activity test Pyricularia oryzae (level) (Pyricularia oryzae; peptide 10 μM) | Plate antimicrobial activity test Pyricularia oryzae (level) (Pyricularia oryzae; peptide 100 μM) | Plate antimicrobial activity test Colletotrichum destructivum (level) ([1]; peptide 1 μM) | Plate antimicrobial activity test Colletotrichum destructivum (level) ([1]; peptide 10 μM) | Plate antimicrobial activity test Colletotrichum destructivum (level) ([1]; peptide 100 μM) | Plate antimicrobial activity test Collectotrichum orbiculare (level) ([2]; peptide 1 μM) | Plate antimicrobial activity test Collectotrichum orbiculare (level) ([2]; peptide 10 μM) | Plate antimicrobial activity test Collectotrichum orbiculare (level) ([2]; peptide 100 μM)

FWRIW (listed as Solanum lycopersicum) [TsORF18-2-5aa-14]
0: Plate antimicrobial activity test Botrytis cinerea (level) (Botrytis cinerea; peptide 1 μM) | Plate antimicrobial activity test Botrytis cinerea (level) (Botrytis cinerea; peptide 10 μM) | Plate antimicrobial activity test Botrytis cinerea (level) (Botrytis cinerea; peptide 100 μM) | Plate antimicrobial activity test Fusarium oxysporum (level) (Fusarium oxysporum) | Plate antimicrobial activity test Pyricularia oryzae (level) (Pyricularia oryzae; peptide 1 μM) | Plate antimicrobial activity test Pyricularia oryzae (level) (Pyricularia oryzae; peptide 10 μM) | Plate antimicrobial activity test Pyricularia oryzae (level) (Pyricularia oryzae; peptide 100 μM) | Plate antimicrobial activity test Colletotrichum destructivum (level) ([1]; peptide 1 μM) | Plate antimicrobial activity test Colletotrichum destructivum (level) ([1]; peptide 10 μM) | Plate antimicrobial activity test Colletotrichum destructivum (level) ([1]; peptide 100 μM) | Plate antimicrobial activity test Collectotrichum orbiculare (level) ([2]; peptide 1 μM) | Plate antimicrobial activity test Collectotrichum orbiculare (level) ([2]; peptide 10 μM) | Plate antimicrobial activity test Collectotrichum orbiculare (level) ([2]; peptide 100 μM)

PAFSE (listed as Solanum lycopersicum) [TsORF18-2-5aa-5]
0: Plate antimicrobial activity test Botrytis cinerea (level) (Botrytis cinerea; peptide 1 μM) | Plate antimicrobial activity test Botrytis cinerea (level) (Botrytis cinerea; peptide 10 μM) | Plate antimicrobial activity test Botrytis cinerea (level) (Botrytis cinerea; peptide 100 μM) | Plate antimicrobial activity test Fusarium oxysporum (level) (Fusarium oxysporum) | Plate antimicrobial activity test Pyricularia oryzae (level) (Pyricularia oryzae; peptide 1 μM) | Plate antimicrobial activity test Pyricularia oryzae (level) (Pyricularia oryzae; peptide 10 μM) | Plate antimicrobial activity test Pyricularia oryzae (level) (Pyricularia oryzae; peptide 100 μM) | Plate antimicrobial activity test Colletotrichum destructivum (level) ([1]; peptide 1 μM) | Plate antimicrobial activity test Colletotrichum destructivum (level) ([1]; peptide 10 μM) | Plate antimicrobial activity test Colletotrichum destructivum (level) ([1]; peptide 100 μM) | Plate antimicrobial activity test Collectotrichum orbiculare (level) ([2]; peptide 1 μM) | Plate antimicrobial activity test Collectotrichum orbiculare (level) ([2]; peptide 10 μM) | Plate antimicrobial activity test Collectotrichum orbiculare (level) ([2]; peptide 100 μM)

YGFPAFSE (listed as Solanum lycopersicum) [TsORF18-2-8aa-2]
0: Plate antimicrobial activity test Botrytis cinerea (level) (Botrytis cinerea; peptide 1 μM) | Plate antimicrobial activity test Botrytis cinerea (level) (Botrytis cinerea; peptide 10 μM) | Plate antimicrobial activity test Botrytis cinerea (level) (Botrytis cinerea; peptide 100 μM) | Plate antimicrobial activity test Fusarium oxysporum (level) (Fusarium oxysporum) | Plate antimicrobial activity test Pyricularia oryzae (level) (Pyricularia oryzae; peptide 1 μM) | Plate antimicrobial activity test Pyricularia oryzae (level) (Pyricularia oryzae; peptide 10 μM) | Plate antimicrobial activity test Pyricularia oryzae (level) (Pyricularia oryzae; peptide 100 μM) | Plate antimicrobial activity test Colletotrichum destructivum (level) ([1]; peptide 1 μM) | Plate antimicrobial activity test Colletotrichum destructivum (level) ([1]; peptide 10 μM) | Plate antimicrobial activity test Colletotrichum destructivum (level) ([1]; peptide 100 μM) | Plate antimicrobial activity test Collectotrichum orbiculare (level) ([2]; peptide 1 μM) | Plate antimicrobial activity test Collectotrichum orbiculare (level) ([2]; peptide 10 μM) | Plate antimicrobial activity test Collectotrichum orbiculare (level) ([2]; peptide 100 μM)

GFPAFSER (listed as Solanum lycopersicum) [TsORF18-2-8aa-3]
0: Plate antimicrobial activity test Botrytis cinerea (level) (Botrytis cinerea; peptide 1 μM) | Plate antimicrobial activity test Botrytis cinerea (level) (Botrytis cinerea; peptide 10 μM) | Plate antimicrobial activity test Botrytis cinerea (level) (Botrytis cinerea; peptide 100 μM) | Plate antimicrobial activity test Fusarium oxysporum (level) (Fusarium oxysporum) | Plate antimicrobial activity test Pyricularia oryzae (level) (Pyricularia oryzae; peptide 1 μM) | Plate antimicrobial activity test Pyricularia oryzae (level) (Pyricularia oryzae; peptide 10 μM) | Plate antimicrobial activity test Pyricularia oryzae (level) (Pyricularia oryzae; peptide 100 μM) | Plate antimicrobial activity test Colletotrichum destructivum (level) ([1]; peptide 1 μM) | Plate antimicrobial activity test Colletotrichum destructivum (level) ([1]; peptide 10 μM) | Plate antimicrobial activity test Colletotrichum destructivum (level) ([1]; peptide 100 μM) | Plate antimicrobial activity test Collectotrichum orbiculare (level) ([2]; peptide 1 μM) | Plate antimicrobial activity test Collectotrichum orbiculare (level) ([2]; peptide 10 μM) | Plate antimicrobial activity test Collectotrichum orbiculare (level) ([2]; peptide 100 μM)

IWKGK (listed as Solanum lycopersicum) [TsORF18-2-5aa-17]
0: Plate antimicrobial activity test Botrytis cinerea (level) (Botrytis cinerea; peptide 1 μM) | Plate antimicrobial activity test Botrytis cinerea (level) (Botrytis cinerea; peptide 10 μM) | Plate antimicrobial activity test Botrytis cinerea (level) (Botrytis cinerea; peptide 100 μM) | Plate antimicrobial activity test Fusarium oxysporum (level) (Fusarium oxysporum) | Plate antimicrobial activity test Pyricularia oryzae (level) (Pyricularia oryzae; peptide 1 μM) | Plate antimicrobial activity test Pyricularia oryzae (level) (Pyricularia oryzae; peptide 10 μM) | Plate antimicrobial activity test Pyricularia oryzae (level) (Pyricularia oryzae; peptide 100 μM) | Plate antimicrobial activity test Colletotrichum destructivum (level) ([1]; peptide 1 μM) | Plate antimicrobial activity test Colletotrichum destructivum (level) ([1]; peptide 10 μM) | Plate antimicrobial activity test Colletotrichum destructivum (level) ([1]; peptide 100 μM) | Plate antimicrobial activity test Collectotrichum orbiculare (level) ([2]; peptide 1 μM) | Plate antimicrobial activity test Collectotrichum orbiculare (level) ([2]; peptide 10 μM) | Plate antimicrobial activity test Collectotrichum orbiculare (level) ([2]; peptide 100 μM)

ERTRK (listed as Solanum lycopersicum) [TsORF18-2-5aa-9]
0: Plate antimicrobial activity test Botrytis cinerea (level) (Botrytis cinerea; peptide 1 μM) | Plate antimicrobial activity test Botrytis cinerea (level) (Botrytis cinerea; peptide 10 μM) | Plate antimicrobial activity test Botrytis cinerea (level) (Botrytis cinerea; peptide 100 μM) | Plate antimicrobial activity test Fusarium oxysporum (level) (Fusarium oxysporum) | Plate antimicrobial activity test Pyricularia oryzae (level) (Pyricularia oryzae; peptide 1 μM) | Plate antimicrobial activity test Pyricularia oryzae (level) (Pyricularia oryzae; peptide 10 μM) | Plate antimicrobial activity test Pyricularia oryzae (level) (Pyricularia oryzae; peptide 100 μM) | Plate antimicrobial activity test Colletotrichum destructivum (level) ([1]; peptide 1 μM) | Plate antimicrobial activity test Colletotrichum destructivum (level) ([1]; peptide 10 μM) | Plate antimicrobial activity test Colletotrichum destructivum (level) ([1]; peptide 100 μM) | Plate antimicrobial activity test Collectotrichum orbiculare (level) ([2]; peptide 1 μM) | Plate antimicrobial activity test Collectotrichum orbiculare (level) ([2]; peptide 10 μM) | Plate antimicrobial activity test Collectotrichum orbiculare (level) ([2]; peptide 100 μM)

FSERTRKF (listed as Solanum lycopersicum) [TsORF18-2-8aa-7]
0: Plate antimicrobial activity test Botrytis cinerea (level) (Botrytis cinerea; peptide 1 μM) | Plate antimicrobial activity test Botrytis cinerea (level) (Botrytis cinerea; peptide 10 μM) | Plate antimicrobial activity test Botrytis cinerea (level) (Botrytis cinerea; peptide 100 μM) | Plate antimicrobial activity test Fusarium oxysporum (level) (Fusarium oxysporum) | Plate antimicrobial activity test Pyricularia oryzae (level) (Pyricularia oryzae; peptide 1 μM) | Plate antimicrobial activity test Pyricularia oryzae (level) (Pyricularia oryzae; peptide 10 μM) | Plate antimicrobial activity test Pyricularia oryzae (level) (Pyricularia oryzae; peptide 100 μM) | Plate antimicrobial activity test Colletotrichum destructivum (level) ([1]; peptide 1 μM) | Plate antimicrobial activity test Colletotrichum destructivum (level) ([1]; peptide 10 μM) | Plate antimicrobial activity test Colletotrichum destructivum (level) ([1]; peptide 100 μM) | Plate antimicrobial activity test Collectotrichum orbiculare (level) ([2]; peptide 1 μM) | Plate antimicrobial activity test Collectotrichum orbiculare (level) ([2]; peptide 10 μM) | Plate antimicrobial activity test Collectotrichum orbiculare (level) ([2]; peptide 100 μM)

KGKTS (listed as Solanum lycopersicum) [TsORF18-2-5aa-19]
0: Plate antimicrobial activity test Botrytis cinerea (level) (Botrytis cinerea; peptide 1 μM) | Plate antimicrobial activity test Botrytis cinerea (level) (Botrytis cinerea; peptide 10 μM) | Plate antimicrobial activity test Botrytis cinerea (level) (Botrytis cinerea; peptide 100 μM) | Plate antimicrobial activity test Fusarium oxysporum (level) (Fusarium oxysporum) | Plate antimicrobial activity test Pyricularia oryzae (level) (Pyricularia oryzae; peptide 1 μM) | Plate antimicrobial activity test Pyricularia oryzae (level) (Pyricularia oryzae; peptide 10 μM) | Plate antimicrobial activity test Pyricularia oryzae (level) (Pyricularia oryzae; peptide 100 μM) | Plate antimicrobial activity test Colletotrichum destructivum (level) ([1]; peptide 1 μM) | Plate antimicrobial activity test Colletotrichum destructivum (level) ([1]; peptide 10 μM) | Plate antimicrobial activity test Colletotrichum destructivum (level) ([1]; peptide 100 μM) | Plate antimicrobial activity test Collectotrichum orbiculare (level) ([2]; peptide 1 μM) | Plate antimicrobial activity test Collectotrichum orbiculare (level) ([2]; peptide 10 μM) | Plate antimicrobial activity test Collectotrichum orbiculare (level) ([2]; peptide 100 μM)

Reference: patent US11952584B2, “Functional peptides having antimicrobial activity against phytopathogenic microorganisms” (TOYOTA JIDOSHA KABUSHIKI KAISHA, priority 2019, dated 2024)
